Measurements reported in PubChem BioAssay (NCI).
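Assay format: 96-well plates, 48-hour exposure. GI50 marks 50% less growth. At the TGI there is no net growth.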

How the values were obtained:
Test in all cases: growth of human tumour cells (NCI), 48 h
[1] = tested on: MDA-MB-435
[2] = tested on: HCT-15 colon
[3] = tested on: HS 578T breast
[4] = tested on: OVCAR-8 ovarian
[5] = tested on: HOP-62 NSCLC
[6] = tested on: SF-539 CNS
[7] = tested on: M14 melanoma
[8] = tested on: ACHN renal
[9] = tested on: SK-MEL-5 melanoma
[10] = tested on: UO-31 renal

| SMILES | TGI [1] | TGI [2] | TGI [3] | TGI [4] | TGI [5] | TGI [6] | TGI [7] | TGI [8] | TGI [9] | TGI [10] | GI50 [1] | GI50 [2] | GI50 [3] | GI50 [4] | GI50 [5] | GI50 [6] | GI50 [7] | GI50 [8] | GI50 [9] | GI50 [10] |
| --- | --- | --- | --- | --- | --- | --- | --- | --- | --- | --- | --- | --- | --- | --- | --- | --- | --- | --- | --- | --- |
| CC(=O)N=C1N(/C=C2\C(=O)Oc3ccccc3C2=O)C(=O)/C(=C/c2ccc(NC(C)=O)cc2)N1C | > 100 µM | > 100 µM | > 100 µM | > 100 µM | > 100 µM | > 100 µM | > 100 µM | > 100 µM | > 100 µM |  |  |  |  |  |  |  |  |  |  |  |
| CN(c1ccccc1Cl)S(=O)(=O)c1ccc([N+](=O)[O-])cc1 | > 100 µM | > 100 µM | > 100 µM | > 100 µM | > 100 µM | > 100 µM | > 100 µM | > 100 µM | > 100 µM | > 100 µM |  |  |  |  |  |  |  |  |  |  |
| CC(C)=CCC/C(C)=C/CC/C(C)=C/CC/C(=C/CC/C(C)=C\CC/C(C)=C/CC/C(C)=C/CC/C(C)=C/Cc1cc(O)ccc1O)CO | > 31.8 µM | 39 µM | 8.44 µM | 13.5 µM | 41.3 µM | 2.48 µM | 4.88 µM | 34.9 µM | 15.9 µM | 21.4 µM |  |  |  |  |  |  |  |  |  |  |
| O=C(Nc1ccc(-n2ccc3c(NC(=O)c4ccccc4)ncnc32)cc1)Nc1cccc(Cl)c1Cl | 8.64 µM | 5.42 µM | 2.6 µM | 2.6 µM | 2.15 µM | 5.69 µM | 2.11 µM | 4.06 µM | 9.99 µM | 1.56 µM | 1.53 µM | 0.156 µM | 0.856 µM | 1.07 µM | 0.983 µM | 1.12 µM | 0.973 µM | 1.35 µM | 1.35 µM | 0.786 µM |
| Cc1cn([C@@H]2O[C@H](CO[Si](C)(C)C(C)(C)C)[C@]3(O[C@H]3C(=O)NN)[C@H]2O[Si](C)(C)C(C)(C)C)c(=O)[nH]c1=O | 23.1 µM | 14.8 µM | 6.93 µM | 19.8 µM | 33.3 µM | 16.3 µM | 20.4 µM | 15.6 µM | 24 µM | 27.7 µM |  |  |  |  |  |  |  |  |  |  |
| NC1=CN2c3ccccc3N(CC(=O)O)C2C=C1 (stereo not drawn) | > 100 µM | > 100 µM | > 100 µM | > 100 µM | > 100 µM | > 100 µM | > 100 µM | > 100 µM | > 100 µM | > 100 µM |  |  |  |  |  |  |  |  |  |  |
| CC(C)C(/C=C/c1ccc(Cl)c(Cl)c1)=N\NC(=O)N/N=C(/C=C/c1ccc(Cl)c(Cl)c1)C(C)C | > 100 µM | > 100 µM | > 100 µM | > 100 µM | > 100 µM | > 100 µM | > 100 µM | > 100 µM | > 100 µM | > 100 µM |  |  |  |  |  |  |  |  |  |  |
| CC1=NN(c2nc(N)nc(CC#N)n2)C(C)(C)C1 | > 100 µM | > 100 µM | > 100 µM | > 100 µM | > 100 µM | > 100 µM | > 100 µM | > 100 µM | > 100 µM | > 100 µM |  |  |  |  |  |  |  |  |  |  |
| S=C(c1c[nH]c2ccccc12)N1CCN(Cc2ccccc2)CC1 | 28.8 µM | 28.1 µM | 34.6 µM | 43.7 µM | 33 µM | 32.9 µM | 26.9 µM | > 100 µM | 24.5 µM | 21.5 µM |  |  |  |  |  |  |  |  |  |  |
| Cc1ccc2nc(-c3ccc(N4C(=O)C(Cl)C4c4ccc(Cl)cc4)cc3)sc2c1 (stereo not drawn) | 36.6 µM | 81.5 µM | 66.8 µM | 81.1 µM | 61.7 µM | 35.3 µM | 57 µM | 50.7 µM | 28.2 µM | 45.8 µM |  |  |  |  |  |  |  |  |  |  |
| CCOC(=O)C(NC(=O)c1ccccc1)(N1CCOCC1)C(F)(F)F (stereo not drawn) | > 100 µM | > 100 µM | > 100 µM | > 100 µM | > 100 µM | > 100 µM | > 100 µM | > 100 µM | > 100 µM | > 100 µM |  |  |  |  |  |  |  |  |  |  |
| COc1ccc(C2C3COc4ccccc4C3=NN2c2ccccc2)cc1 (stereo not drawn) | > 100 µM | > 100 µM | > 100 µM | > 100 µM | > 100 µM | > 100 µM | > 100 µM | > 100 µM | > 100 µM | > 100 µM |  |  |  |  |  |  |  |  |  |  |
| Cc1ccc(NC(=O)CSc2nc(=O)[nH]c3nc[nH]c23)cc1 | > 100 µM | > 100 µM | > 100 µM | > 100 µM | > 100 µM | 52.8 µM | > 100 µM | > 100 µM | > 100 µM | > 100 µM |  |  |  |  |  |  |  |  |  |  |
| COC(=O)c1cnc(Cl)cn1 | > 100 µM | 38.5 µM | > 100 µM | > 100 µM | > 100 µM | > 100 µM | > 100 µM | > 100 µM | > 100 µM | 36.9 µM |  |  |  |  |  |  |  |  |  |  |
| CCCCCCCCCCCCCCCC(=O)N(CCCCCCCCCCC(=O)O)CC(O)C(O)C(OC1OC(CO)C(O)C(O)C1O)C(O)CO (stereo not drawn) | > 100 µM | > 100 µM | > 100 µM | 66 µM | 75.8 µM | 54.9 µM | 50.2 µM | > 100 µM | > 100 µM | > 100 µM |  |  |  |  |  |  |  |  |  |  |
| C=C1C(=O)O[C@@H]2C=C(C)C3=CC(=O)[C@](C)(C[C@H](OC(=O)/C(C)=C\C)[C@@H]12)O3 | 3.74 µM | 2.06 µM | 17.7 µM | 2.18 µM | 10.5 µM | 6.09 µM | 2.46 µM | 3 µM | 2.03 µM | 2.37 µM |  |  |  |  |  |  |  |  |  |  |
| O=C(O)CC1NCc2cc3ccccc3nc21 (stereo not drawn) | > 100 µM | > 100 µM | > 100 µM | > 100 µM | > 100 µM | > 100 µM | > 100 µM | > 100 µM | > 100 µM | > 100 µM |  |  |  |  |  |  |  |  |  |  |
| CCOC(=O)/C(C#N)=C/c1ccnc2ccccc12 | > 100 µM | > 100 µM | > 100 µM | 57 µM | > 100 µM | 50 µM | > 100 µM | > 100 µM | > 100 µM |  |  |  |  |  |  |  |  |  |  |  |
| Nc1ccc(C(=O)c2cn(CCN3CCOCC3)c3ccccc23)c2ccccc12 | 83 µM | 43.3 µM | > 100 µM | 52.7 µM | > 100 µM | > 100 µM | > 100 µM | > 100 µM | 51.5 µM | > 100 µM |  |  |  |  |  |  |  |  |  |  |
| CN(/N=C/c1ccnc2ccccc12)c1ccc(Cl)cc1[N+](=O)[O-] | > 100 µM | > 100 µM | 52.2 µM | > 100 µM | > 100 µM | > 100 µM | > 100 µM | > 100 µM | > 100 µM | > 100 µM |  |  |  |  |  |  |  |  |  |  |
